Measured values reported in patent publication US10323007B1, “N2N N4-disubstituted quinazoline-2,4-diamines and uses thereof” (University of South Florida, priority 2016, dated 2019).
In brackets after ≈: the same amount, converted by molar mass. Read-outs that look alike come from different tables or passages of the source.

Assays:
Format in all cases: cell-based, Acinetobacter baumannii
A. baumannii 1652 = assay: MIC assay, strain 1652
Method: (§1) MIC and MBC assays were performed in this study as documented by us previously.^17,23,24,25 The A. baumannii strains used are detailed in Table 7.

A. baumannii 1649 = assay: MIC assay, strain 1649
Method: as §1

A. baumannii 1646 [1] = assay: MIC assay, strain 1646
Method: as §1

A. baumannii 1650 = assay: MIC assay, strain 1650
Method: as §1

A. baumannii 1651 = assay: MIC assay, strain 1651
Method: as §1

A. baumannii 1403 = assay: MIC assay, strain 1403
Method: as §1

A. baumannii = assay: MIC assay, A. baumannii isolates (strain not given); settings: Acinetobacter baumannii; strain not given; read-out: MIC
Method: as §1

A. baumannii 1646 [2] = assay: minimal bactericidal concentration (MBC) assay, strain 1646; settings: isolate 1646
Text: Lead quinazolines 4, 5, 26, 29, 27, and 30 were selected to be further evaluated for antimicrobial effects. The first assay utilized was a minimal bactericidal concentration (MBC) assay, to assess whether leads compounds were bacteriostatic or bactericidal. The six lead agents were screened to identify their MBC90 towards each of the six A. baumannii isolates used in the SAR studies (Table 8), however for simplicity only the representative data for isolate 1646 is detailed below (Table 6). […] Further to this, we were able to obtain complete eradication of bacterial growth for these two compounds at 1 μM for 24 and 5 μM for 25.
as §1

[3] = Acinetobacter baumannii, strain 1652, Tables 1, 3, 4, 5 and footnotes, read-out: 1652 MIC
[4] = Acinetobacter baumannii, strain 1649, Tables 1, 3, 4, 5 and footnotes, read-out: 1649 MIC
[5] = Acinetobacter baumannii, strain 1646, Tables 1, 3, 4, 5 and footnotes, read-out: 1646 MIC
[6] = Acinetobacter baumannii, strain 1650, Tables 1, 3, 4, 5 and footnotes, read-out: 1650 MIC
[7] = Acinetobacter baumannii, strain 1651, Tables 1, 3, 4, 5 and footnotes, read-out: 1651 MIC
[8] = Acinetobacter baumannii, strain 1403, Tables 1, 3, 4, 5 and footnotes, read-out: 1403 MIC
[9] = Acinetobacter baumannii, strain 1652, Table 2, read-out: 1652 MIC
[10] = Acinetobacter baumannii, strain 1649, Table 2, read-out: 1649 MIC
[11] = Acinetobacter baumannii, strain 1646, Table 2, read-out: 1646 MIC
[12] = Acinetobacter baumannii, strain 1650, Table 2, read-out: 1650 MIC
[13] = Acinetobacter baumannii, strain 1651, Table 2, read-out: 1651 MIC
[14] = Acinetobacter baumannii, strain 1403, Table 2, read-out: 1403 MIC
[15] = Acinetobacter baumannii, 1652, read-out: 1652 MIC
[16] = Acinetobacter baumannii, 1649, read-out: 1649 MIC
[17] = Acinetobacter baumannii, 1646, read-out: 1646 MIC
[18] = Acinetobacter baumannii, 1650, read-out: 1650 MIC
[19] = Acinetobacter baumannii, 1651, read-out: 1651 MIC
[20] = Acinetobacter baumannii, 1403, read-out: 1403 MIC

SMILES	MIC (A. baumannii 1652; [3])	MIC (A. baumannii 1649; [4])	MIC (A. baumannii 1646 [1]; [5])	MIC (A. baumannii 1650; [6])	MIC (A. baumannii 1651; [7])	MIC (A. baumannii 1403; [8])	further results
CNc1nc(NCc2ccccc2)nc2ccc(Cl)cc12 [Compound 1, N^2-Benzyl-6-chloro-N^4-methylquinazoline-2,4-diamine]	20 µM (≈ 5.98 µg/mL)	25 µM (≈ 7.47 µg/mL)	2 µM (≈ 0.598 µg/mL)	15 µM (≈ 4.48 µg/mL)	6 µM (≈ 1.79 µg/mL)	50 µM (≈ 14.9 µg/mL)	–
CNc1nc(NCc2ccccc2)nc2cc(Cl)ccc12 [Compound 2, N^2-Benzyl-7-chloro-N^4-methylquinazoline-2,4-diamine]	50 µM (≈ 14.9 µg/mL)	30 µM (≈ 8.96 µg/mL)	6 µM (≈ 1.79 µg/mL)	> 50 µM	10 µM (≈ 2.99 µg/mL)	> 50 µM	–
CNc1nc(NCc2ccccc2)nc2ccc(OC)cc12 [Compound 3, N^2-Benzyl-6-methoxy-N^4-methylquinazoline-2,4-diamine]	30 µM (≈ 8.83 µg/mL)	25 µM (≈ 7.36 µg/mL)	2 µM (≈ 0.589 µg/mL)	50 µM (≈ 14.7 µg/mL)	10 µM (≈ 2.94 µg/mL)	> 50 µM	–
CNc1nc(NCc2ccccc2)nc2cc(Br)ccc12 [Compound 6, N^2-Benzyl-7-bromo-N^4-methylquinazoline-2,4-diamine]	–	–	–	–	–	–	MIC (A. baumannii 1652; [9]): > 50 µM; MIC (A. baumannii 1649; [10]): 25 µM (≈ 8.58 µg/mL); MIC (A. baumannii 1646 [1]; [11]): 6 µM (≈ 2.06 µg/mL); MIC (A. baumannii 1650; [12]): > 50 µM; MIC (A. baumannii 1651; [13]): 10 µM (≈ 3.43 µg/mL); MIC (A. baumannii 1403; [14]): > 50 µM
CNc1nc(NCc2ccccc2)nc2cc(C)ccc12 [Compound 7, N^2-Benzyl-N^4,7-dimethylquinazoline-2,4-diamine]	–	–	–	–	–	–	MIC (A. baumannii 1652; [9]): 35 µM (≈ 9.74 µg/mL); MIC (A. baumannii 1649; [10]): 25 µM (≈ 6.96 µg/mL); MIC (A. baumannii 1646 [1]; [11]): 12 µM (≈ 3.34 µg/mL); MIC (A. baumannii 1650; [12]): 50 µM (≈ 13.9 µg/mL); MIC (A. baumannii 1651; [13]): 12 µM (≈ 3.34 µg/mL); MIC (A. baumannii 1403; [14]): 50 µM (≈ 13.9 µg/mL)
CNc1nc(NCc2ccccc2)nc2ccccc12 [Compound 8, N^2-benzyl-N^4-methylquinazolin-2,4-diamine]	–	–	–	–	–	–	MIC (A. baumannii 1652; [9]): > 50 µM; MIC (A. baumannii 1649; [10]): > 50 µM; MIC (A. baumannii 1646 [1]; [11]): 50 µM (≈ 13.2 µg/mL); MIC (A. baumannii): ≥ 50 µM; MIC (A. baumannii 1650; [12]): > 50 µM; MIC (A. baumannii 1651; [13]): > 50 µM; MIC (A. baumannii 1403; [14]): > 50 µM
CNc1nc(NCc2ccccc2)c2cc(Cl)ccc2n1 [Compound 9, N^4-Benzyl-6-chloro-N^2-methylquinazoline-2,4-diamine]	> 50 µM	50 µM (≈ 14.9 µg/mL)	4 µM (≈ 1.2 µg/mL)	50 µM (≈ 14.9 µg/mL)	6 µM (≈ 1.79 µg/mL)	> 50 µM	–
CNc1nc(NCc2ccccc2)c2cc(Br)ccc2n1 [Compound 10, N^4-Benzyl-6-bromo-N^2-methylquinazoline-2,4-diamine]	> 50 µM	50 µM (≈ 17.2 µg/mL)	2 µM (≈ 0.686 µg/mL)	> 50 µM	> 50 µM	> 50 µM	–
CNc1nc(NCc2ccccc2)c2cc(C)ccc2n1 [Compound 11, N^4-Benzyl-N^2,6-dimethylquinazoline-2,4-diamine]	> 50 µM	> 50 µM	6 µM (≈ 1.67 µg/mL)	> 50 µM	12 µM (≈ 3.34 µg/mL)	> 50 µM	–
CNc1nc(NCc2ccccc2)c2cc(OC)ccc2n1 [Compound 12, N^4-Benzyl-6-methoxy-N^2-methylquinazoline-2,4-diamine]	> 50 µM	> 50 µM	6 µM (≈ 1.77 µg/mL)	> 50 µM	8 µM (≈ 2.35 µg/mL)	> 50 µM	–
CNc1nc(NCc2ccccc2)c2ccc(Cl)cc2n1 [Compound 13, N^4-Benzyl-7-chloro-N^2-methylquinazoline-2,4-diamine]	> 50 µM	> 50 µM	4 µM (≈ 1.2 µg/mL)	> 50 µM	> 50 µM	> 50 µM	–
CNc1nc(NCc2ccccc2)c2ccc(Br)cc2n1 [Compound 14, N^4-Benzyl-7-bromo-N^2-methylquinazoline-2,4-diamine]	> 50 µM	> 50 µM	4 µM (≈ 1.37 µg/mL)	> 50 µM	> 50 µM	> 50 µM	–
CNc1nc(NCc2ccccc2)c2ccc(C)cc2n1 [Compound 15, N^4-Benzyl-N^2,7-dimethylquinazoline-2,4-diamine]	> 50 µM	> 50 µM	12 µM (≈ 3.34 µg/mL)	> 50 µM	> 50 µM	> 50 µM	–
C=Cc1ccc2nc(NCc3ccccc3)nc(NC)c2c1 [Compound 22, N^2-Benzyl-N^4-methyl-6-vinylquinazoline-2,4-diamine]	25 µM (≈ 7.26 µg/mL)	10 µM (≈ 2.9 µg/mL)	2 µM (≈ 0.581 µg/mL)	20 µM (≈ 5.81 µg/mL)	25 µM (≈ 7.26 µg/mL)	25 µM (≈ 7.26 µg/mL)	–
CCc1ccc2nc(NCc3ccccc3)nc(NC)c2c1 [Compound 23, N^2-Benzyl-6-ethyl-N^4-methylquinazoline-2,4-diamine]	30 µM (≈ 8.77 µg/mL)	10 µM (≈ 2.92 µg/mL)	2 µM (≈ 0.585 µg/mL)	30 µM (≈ 8.77 µg/mL)	2 µM (≈ 0.585 µg/mL)	30 µM (≈ 8.77 µg/mL)	–
C=C(C)c1ccc2nc(NCc3ccccc3)nc(NC)c2c1 [Compound 24, N^2-Benzyl-N^4-methyl-6-(prop-1-en-2-yl)quinazoline-2,4-diamine]	> 50 µM	25 µM (≈ 7.61 µg/mL)	2 µM (≈ 0.609 µg/mL)	> 50 µM	10 µM (≈ 3.04 µg/mL)	> 50 µM	concentration giving complete eradication of bacterial growth (A. baumannii 1646 [2]): 1 µM
CNc1nc(NCc2ccccc2)nc2ccc(C3=CCCC3)cc12 [Compound 28, N^2-Benzyl-6-(cyclopent-1-en-1-yl)-N^4-methylquinazoline-2,4-diamine]	> 50 µM	50 µM (≈ 16.5 µg/mL)	2 µM (≈ 0.661 µg/mL)	> 50 µM	30 µM (≈ 9.91 µg/mL)	> 50 µM	–
CNc1nc(NCc2ccccc2)nc2ccc(-c3ccccc3)cc12 [Compound 31, N^2-Benzyl-N^4-methyl-6-phenylquinazoline-2,4-diamine]	–	–	–	–	–	–	MIC (A. baumannii 1652; [15]): 50 µM (≈ 17 µg/mL); MIC (A. baumannii 1649; [16]): 20 µM (≈ 6.81 µg/mL); MIC (A. baumannii 1646 [1]; [17]): 10 µM (≈ 3.4 µg/mL); MIC (A. baumannii 1650; [18]): 20 µM (≈ 6.81 µg/mL); MIC (A. baumannii 1651; [19]): 2 µM (≈ 0.681 µg/mL); MIC (A. baumannii 1403; [20]): 30 µM (≈ 10.2 µg/mL)
CNc1nc(NCc2ccccc2)nc2ccc(-c3ccco3)cc12 [Compound 32, N^2-Benzyl-6-(furan-2-yl)-N^4-methylquinazoline-2,4-diamine]	–	–	–	–	–	–	MIC (A. baumannii 1652; [15]): > 50 µM; MIC (A. baumannii 1649; [16]): > 50 µM; MIC (A. baumannii 1646 [1]; [17]): 25 µM (≈ 8.26 µg/mL); MIC (A. baumannii 1650; [18]): > 50 µM; MIC (A. baumannii 1651; [19]): 15 µM (≈ 4.96 µg/mL); MIC (A. baumannii 1403; [20]): 40 µM (≈ 13.2 µg/mL)
